Measurements as given in ChEMBL document CHEMBL4811216, “Chemotherapy for human schistosomiasis: how far have we come? What's new? Where do we go from here?” (RSC Med Chem, 2020).

Tests used:
[1] = test system: Schistosoma mansoni; assay: Antischistosomal activity against adult Schistosoma mansoni measured up to 72 hrs by microscopic method; format: functional, organism-based
[2] = test system: Schistosoma mansoni; assay: Antischistosomal activity against Schistosoma mansoni NTS assessed as worm mortality at 10 uM measured up to 72 hrs by microscopic method relative to control; format: functional; details: time hrs <=72
[3] = test system: Schistosoma mansoni; assay: Antischistosomal activity against adult Schistosoma mansoni assessed as worm mortality at 10 uM measured up to 72 hrs by microscopic method relative to control; format: functional; details: time hrs <=72
[4] = test system: Schistosoma mansoni; assay: Antischistosomal activity against Schistosoma mansoni incubated for 72 hrs by microscopic method; format: functional, organism-based
[5] = target: HDAC1 (histone deacetylase 1) (Homo sapiens, UniProt Q13547); assay: Inhibition of human HDAC1 using Z-Lys(Ac)-AMC as substrate at 1 uM by fluorimetric method relative to control; details: HDAC1 enzyme, probe Z-Lys(Ac)-AMC
[6] = test system: Schistosoma mansoni; assay: microbe, parasite or virus in culture; details: 72 h
Description: Antischistosomal activity against Schistosoma mansoni incubated for 72 hrs by inverted microscopic method

[7] = test system: Schistosoma mansoni; assay: microbe, parasite or virus in culture; details: Liberian, 72 h
Description: Antischistosomal activity against Schistosoma mansoni Liberian NTS incubated for 72 hrs by microscopic method

[8] = test system: Schistosoma haematobium; assay: Antischistosomal activity against Schistosoma haematobium at 10 uM measured after 72 hrs relative to control; format: functional

HDAC1 (histone deacetylase 1), sequence (Q13547 whole entry): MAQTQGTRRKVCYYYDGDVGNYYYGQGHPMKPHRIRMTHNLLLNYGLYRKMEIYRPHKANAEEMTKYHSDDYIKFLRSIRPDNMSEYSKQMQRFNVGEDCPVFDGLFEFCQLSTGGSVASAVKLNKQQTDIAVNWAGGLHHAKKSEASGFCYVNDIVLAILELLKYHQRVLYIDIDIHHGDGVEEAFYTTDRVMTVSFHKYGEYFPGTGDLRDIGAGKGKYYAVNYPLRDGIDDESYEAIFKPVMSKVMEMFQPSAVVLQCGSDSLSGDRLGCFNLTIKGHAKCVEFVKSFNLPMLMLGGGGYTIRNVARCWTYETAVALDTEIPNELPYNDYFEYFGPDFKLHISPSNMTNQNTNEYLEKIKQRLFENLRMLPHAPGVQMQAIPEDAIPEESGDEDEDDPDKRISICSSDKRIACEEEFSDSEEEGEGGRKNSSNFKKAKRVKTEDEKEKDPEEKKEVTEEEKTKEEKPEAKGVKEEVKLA

## CCNCCNc1cc(-c2ccc(C(F)(F)F)cc2)c(C#N)c2nc3cc(Cl)c(Cl)cc3n12
[1]
  IC50: 200 nM
[2]
  mortality at 10 µM: > 70%

## Cc1csc(Nc2cc(C(F)(F)F)c(C#N)c3nc4ccccc4n23)n1
[1]
  IC50: 200 nM
[2]
  mortality at 10 µM: > 70%
[3]
  mortality at 10 µM: > 60%

## N#Cc1c(C(F)(F)F)cc(NCc2ccco2)n2c1nc1cc(Cl)c(Cl)cc12
[4]
  IC50: 200 nM

## CCN(CC)CCCC(C)Nc1cc(-c2ccc(C(F)(F)F)cc2)c(C#N)c2nc3ccccc3n12 (stereo not given)
[1]
  IC50: 200 nM
[2]
  mortality at 10 µM: > 70%

## CN1CCC(Oc2cc(-c3ccc(C(F)(F)F)cc3)c(C#N)c3nc4ccccc4n23)CC1
[1]
  IC50: 200 nM
[2]
  mortality at 10 µM: > 70%

## N#Cc1c(C(F)(F)F)cc(NCc2ccccn2)n2c1nc1cc(Cl)c(Cl)cc12
[4]
  IC50: 200 nM

## CCNCCNc1cc(-c2ccc(C(F)(F)F)cc2)c(C#N)c2nc3ncccc3n12
[1]
  IC50: 200 nM
[2]
  mortality at 10 µM: > 70%

## N#Cc1c(C(F)(F)F)cc(Nc2ccc(CN3CCOCC3)cc2)n2c1nc1ccccc12
[1]
  IC50: 200 nM
[2]
  mortality at 10 µM: > 70%
[3]
  mortality at 10 µM: > 60%

## N#Cc1c(C(F)(F)F)cc(Nc2ccc3nc(NCCN4CCCC4)oc3c2)n2c1nc1ccccc12
[1]
  IC50: 200 nM
[2]
  mortality at 10 µM: > 70%
[3]
  mortality at 10 µM: > 60%

## CC(Nc1cc(C(F)(F)F)cc2nc3cc(Cl)c(Cl)cc3n12)c1ccc(S(C)(=O)=O)cc1 (stereo not given)
[4]
  IC50: 200 nM

## N#Cc1c(C(F)(F)F)cc(Nc2ccccc2)n2c1nc1ccccc12
[1]
  IC50: 200 nM
[2]
  mortality at 10 µM: > 70%
[3]
  mortality at 10 µM: > 60%

## CCNCCNc1cc(-c2ccc(C(F)(F)F)cc2)c(C#N)c2nc3cccc(Br)c3n12
[1]
  IC50: 200 nM
[2]
  mortality at 10 µM: > 70%

## N#Cc1c(C(F)(F)F)cc(Nc2ccc(OC(F)(F)F)cc2)n2c1nc1cc(Cl)c(Cl)cc12
[4]
  IC50: 200 nM

## N#Cc1c(C(F)(F)F)cc(NCc2ccc(F)cc2)n2c1nc1cc(Cl)c(Cl)cc12
[4]
  IC50: 200 nM

## N#Cc1c(C(F)(F)F)cc(Nc2ccccc2OC(F)(F)F)n2c1nc1ccccc12
[4]
  IC50: 200 nM

## N#Cc1c(-c2ccc(C(F)(F)F)cc2)cc(NC2CCC(N)CC2)n2c1nc1cc(Cl)cc(Cl)c12 (stereo not given)
[1]
  IC50: 200 nM
[2]
  mortality at 10 µM: > 70%

## CCNCCNc1cc(C2CCCCC2)c(C#N)c2nc3ccccc3n12
[1]
  IC50: 200 nM
[2]
  mortality at 10 µM: > 70%

## Cc1ccc(CONC(=O)c2cccc(C(=O)NO)c2)cc1
[5]
  inhibition at 1 µM: < 10%

## N#Cc1c(C(F)(F)F)cc(NCc2ccc(OC(F)(F)F)cc2)n2c1nc1cc(Cl)c(Cl)cc12
[4]
  IC50: 200 nM

## N#Cc1c(C(F)(F)F)cc(NCc2cccs2)n2c1nc1cc(Cl)c(Cl)cc12
[4]
  IC50: 200 nM

## O=C(NO)c1cccc(C(=O)NOCCc2ccccc2)c1
[5]
  inhibition at 1 µM: < 10%

## N#Cc1c(C(F)(F)F)cc(Nc2ccc(OC(F)(F)F)cc2)n2c1nc1ccccc12
[4]
  IC50: 200 nM

## Cn1c(=O)c2c(S(C)(=O)=O)snc2n(C)c1=O
[6]
  IC50: 4700 nM
[7]
  IC50: 800 nM
[8]
  Activity: 75.4%

## CNc1nnc(Sc2cnn(-c3ccccc3)c(=O)c2Cl)s1
[6]
  IC50: 2500 nM
[7]
  IC50: 400 nM
[8]
  Activity: 100%

## N#Cc1ccc(S(=O)(=O)Nc2cc(C(F)(F)F)cc3nc4cc(Cl)c(Cl)cc4n23)cc1
[4]
  IC50: 200 nM

## CN(C)CCNc1nc2ccc(Nc3cc(C(F)(F)F)c(C#N)c4nc5ccccc5n34)cc2o1
[1]
  IC50: 200 nM
[2]
  mortality at 10 µM: > 70%
[3]
  mortality at 10 µM: > 60%

## CC(C)=CCC/C(C)=C\CNCCNC1C2CC3CC(C2)CC1C3 (stereo not given)
[6]
  IC50: 4900 nM
[7]
  IC50: 2900 nM
[8]
  Activity: 82.5%

## O=C(Nc1ccc(C(F)(F)F)c(C(F)(F)F)c1)c1cc(Cl)ccc1O
[6]
  IC50: 2100 nM
[7]
  IC50: 200 nM
[8]
  Activity: 100%

## O=C(NO)c1cccc(C(=O)NOCc2ccc(F)c(F)c2)c1
[5]
  inhibition at 1 µM: < 10%

## Cc1ccc(CNc2cc(C(F)(F)F)c(C#N)c3nc4cc(Cl)c(Cl)cc4n23)cc1
[4]
  IC50: 200 nM

## CCNCCNc1cc(-c2ccc(C(F)(F)F)cc2)c(C#N)c2nc3cc(Cl)ccc3n12
[1]
  IC50: 200 nM
[2]
  mortality at 10 µM: > 70%

## CCNCCNc1cc(-c2ccc(C(F)(F)F)cc2)c(C#N)c2nc3c(Cl)cc(Cl)cc3n12
[1]
  IC50: 200 nM
[2]
  mortality at 10 µM: > 70%

## O=C(NO)c1cccc(C(=O)NNc2ccccc2)c1
[5]
  inhibition at 1 µM: < 10%

## O=S(=O)(Nc1cc(C(F)(F)F)cc2nc3cc(Cl)c(Cl)cc3n12)c1ccc(OC(F)(F)F)cc1
[4]
  IC50: 200 nM

## CCNCCNc1cc(-c2ccc(C(F)(F)F)cc2)c(C#N)c2nc3cccc(Cl)c3n12
[1]
  IC50: 200 nM
[2]
  mortality at 10 µM: > 70%

## COc1cccc(-n2nnnc2S(C)(=O)=O)c1
[6]
  IC50: 6800 nM
[7]
  IC50: 900 nM
[8]
  Activity: 87.7%

## O=C(NO)c1cccc(C(=O)NOCc2ccccc2)c1
[5]
  inhibition at 1 µM: < 10%

## CCNCCNc1cc(-c2cccc(C(F)(F)F)c2)c(C#N)c2nc3ccccc3n12
[1]
  IC50: 200 nM
[2]
  mortality at 10 µM: > 70%

## O=C(NO)c1cccc(C(=O)NOCc2cccc3ccccc23)c1
[5]
  inhibition at 1 µM: < 10%

## CCNCCNc1cc(C2CCCC2)c(C#N)c2nc3ccccc3n12
[1]
  IC50: 200 nM
[2]
  mortality at 10 µM: > 70%

## N#Cc1c(C(F)(F)F)cc(Nc2ccnc(F)c2)n2c1nc1ccccc12
[1]
  IC50: 200 nM
[2]
  mortality at 10 µM: > 70%
[3]
  mortality at 10 µM: > 60%

## Cc1cc(C)cc(CONC(=O)c2cccc(C(=O)NO)c2)c1
[5]
  inhibition at 1 µM: < 10%

## COc1ncnc(Nc2cc(C(F)(F)F)c(C#N)c3nc4ccccc4n23)c1OC
[1]
  IC50: 200 nM
[2]
  mortality at 10 µM: > 70%
[3]
  mortality at 10 µM: > 60%
[4]
  IC50: 200 nM

## FC(F)(F)Oc1ccc(Nc2cc(C(F)(F)F)cc3nc4ccccc4n23)cc1
[4]
  IC50: 200 nM

## N#Cc1ccc(Nc2cc(C(F)(F)F)c(C#N)c3nc4ccccc4n23)cc1
[1]
  IC50: 200 nM
[2]
  mortality at 10 µM: > 70%
[3]
  mortality at 10 µM: > 60%

## CCNCCNc1cc(-c2ccc(C(F)(F)F)cc2)c(C#N)c2nc3ccccc3n12
[1]
  IC50: 200 nM
[2]
  mortality at 10 µM: > 70%

## c1ccc(Oc2ccc(-c3cncc(-c4ccc5[nH]ccc5c4)n3)cc2)cc1
[6]
  IC50: 3400 nM
[7]
  IC50: 2200 nM
[8]
  Activity: 75.4%

## O=C(NO)c1cccc(C(=O)NOCCCc2ccccc2)c1
[5]
  inhibition at 1 µM: < 10%

## COc1ccc(Nc2cc(C(F)(F)F)c(C#N)c3nc4ccccc4n23)cc1
[1]
  IC50: 200 nM
[2]
  mortality at 10 µM: > 70%
[3]
  mortality at 10 µM: > 60%

## Clc1ccc2c(N3CCNCCN(c4ccnc5cc(Cl)ccc45)CCNCC3)ccnc2c1
[4]
  IC50: 1600 nM

## CN1CCC(Nc2cc(-c3ccc(C(F)(F)F)cc3)c(C#N)c3nc4cc(Cl)c(Cl)cc4n23)CC1
[1]
  IC50: 200 nM
[2]
  mortality at 10 µM: > 70%

## N#Cc1c(C(F)(F)F)cc(NCc2cccc(F)c2)n2c1nc1cc(Cl)c(Cl)cc12
[4]
  IC50: 200 nM

## O=C(NO)c1cccc(C(=O)NOCc2cccc(Cl)c2Cl)c1
[5]
  inhibition at 1 µM: < 10%

## Nc1nc(NCC2CCC(CNS(=O)(=O)c3ccc4ccccc4c3)CC2)nc2ccccc12 (stereo not given)
[6]
  IC50: 2000 nM
[7]
  IC50: 600 nM

## N#Cc1c(-c2ccc(C(F)(F)F)cc2)cc(NCCn2ccnc2)n2c1nc1ccccc12
[1]
  IC50: 200 nM
[2]
  mortality at 10 µM: > 70%

## N#Cc1c(C(F)(F)F)cc(Nc2cnccn2)n2c1nc1ccccc12
[1]
  IC50: 200 nM
[2]
  mortality at 10 µM: > 70%
[3]
  mortality at 10 µM: > 60%
[4]
  IC50: 200 nM

## N#Cc1c(C(F)(F)F)cc(NCc2ccc(F)cc2)n2c1nc1cc(Cl)cc(Cl)c12
[4]
  IC50: 200 nM

## CNC1CCN(c2cc(-c3ccc(C(F)(F)F)cc3)c(C#N)c3nc4ccccc4n23)C1 (stereo not given)
[1]
  IC50: 200 nM
[2]
  mortality at 10 µM: > 70%

## CCNCCNc1cc(-c2ccc(Cl)c(Cl)c2)c(C#N)c2nc3ccccc3n12
[1]
  IC50: 200 nM
[2]
  mortality at 10 µM: > 70%

## CS(=O)(=O)c1ccc(Nc2cc(C(F)(F)F)c(C#N)c3nc4ccccc4n23)cc1
[1]
  IC50: 200 nM
[2]
  mortality at 10 µM: > 70%
[3]
  mortality at 10 µM: > 60%

## N#Cc1c(C(F)(F)F)cc(Nc2cccc(OC(F)(F)F)c2)n2c1nc1ccccc12
[4]
  IC50: 200 nM
